Here are results for ten compounds from patent US11780830B2, “Triazolone derivatives or salts thereof and pharmaceutical compositions comprising the same” (YUHAN CORPORATION, priority 2018, dated 2023).

What all share (type): biochemical
For assay [1], the target named is T1, recombinant human DAO (diamine oxidase) (Homo sapiens, UniProt P19801).
T1 construct: purchased R&D systems
T1 sequence (P19801 20-751): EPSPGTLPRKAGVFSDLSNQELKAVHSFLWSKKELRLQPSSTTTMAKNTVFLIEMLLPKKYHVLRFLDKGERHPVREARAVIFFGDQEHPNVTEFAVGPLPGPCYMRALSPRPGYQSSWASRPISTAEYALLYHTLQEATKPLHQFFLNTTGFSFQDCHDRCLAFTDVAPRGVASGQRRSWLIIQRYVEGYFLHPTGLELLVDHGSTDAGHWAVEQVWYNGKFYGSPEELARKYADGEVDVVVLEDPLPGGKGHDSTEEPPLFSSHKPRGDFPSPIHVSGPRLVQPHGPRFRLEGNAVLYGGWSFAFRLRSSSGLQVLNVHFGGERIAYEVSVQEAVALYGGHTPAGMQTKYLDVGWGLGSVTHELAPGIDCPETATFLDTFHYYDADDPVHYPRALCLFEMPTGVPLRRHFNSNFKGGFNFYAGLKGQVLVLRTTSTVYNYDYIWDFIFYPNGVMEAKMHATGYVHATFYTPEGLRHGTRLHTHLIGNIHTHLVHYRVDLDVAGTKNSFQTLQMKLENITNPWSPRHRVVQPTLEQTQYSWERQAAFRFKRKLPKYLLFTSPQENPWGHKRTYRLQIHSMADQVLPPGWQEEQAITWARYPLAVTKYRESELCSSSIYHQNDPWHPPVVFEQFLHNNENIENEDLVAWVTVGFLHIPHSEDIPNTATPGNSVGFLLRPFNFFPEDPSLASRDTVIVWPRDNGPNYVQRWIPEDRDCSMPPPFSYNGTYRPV
The experiment in a line: Activity on recombinant human DAO, method similar to the VAP-1 assay. The note with it: substrate 1 mM putrescine; read-out: Inhibitory Activity (IC50, nM) DAO. In short, it runs like this:
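Inhibition of recombinant human diamine oxidase (DAO, R&D systems) was assessed by the same approach as the VAP-1 assay, using 1 mM putrescine as substrate. Hydrogen peroxide formed was detected through an HRP-coupled Amplex Red reaction yielding fluorescent resorufin, read at 544 nm excitation and 590 nm emission. IC50 values came from four-parameter logistic fitting in GraphPad Prism.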

The target in assay [2] is T2, recombinant human MAO-B (monoamine oxidase-B) (Homo sapiens, UniProt P27338).
T2 construct: purchased Sigma-Aldrich
T2 sequence (P27338 1-520): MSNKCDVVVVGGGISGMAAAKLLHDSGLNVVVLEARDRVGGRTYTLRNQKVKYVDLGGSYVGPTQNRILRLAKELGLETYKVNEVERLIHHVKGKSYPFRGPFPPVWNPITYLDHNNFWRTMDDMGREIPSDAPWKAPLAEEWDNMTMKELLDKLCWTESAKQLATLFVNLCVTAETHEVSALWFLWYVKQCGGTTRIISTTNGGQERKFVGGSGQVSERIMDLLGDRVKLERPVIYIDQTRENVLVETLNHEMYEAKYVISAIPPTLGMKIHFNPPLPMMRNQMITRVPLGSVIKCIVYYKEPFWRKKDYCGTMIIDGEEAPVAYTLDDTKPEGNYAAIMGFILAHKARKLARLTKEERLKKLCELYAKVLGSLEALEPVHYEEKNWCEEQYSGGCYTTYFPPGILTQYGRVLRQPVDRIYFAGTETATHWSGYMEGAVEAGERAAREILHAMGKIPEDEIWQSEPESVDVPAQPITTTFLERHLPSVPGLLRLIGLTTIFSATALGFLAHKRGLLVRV
The experiment in a line: Activity on recombinant human MAO-B, method similar to the VAP-1 assay. The note with it: substrate 1 mM benzylamine; read-out: Inhibitory Activity (IC50, nM) MAO-B. Put shortly: (§1)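 Enzyme preincubated with compound 30 min at 37 °C in 50 mM sodium phosphate pH 7.4, final DMSO below 1%. Substrate was 0.5 mM tyramine for MAO-A and 1 mM benzylamine for MAO-B, with 200 uM Amplex Red and 1 U/mL HRP. H2O2-coupled resorufin fluorescence (ex 544/em 590) followed over 1–2 h; 8-point 4-parameter IC50.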

The target in assay [3] is T3, recombinant human MAO-A (monoamine oxidase-A) (Homo sapiens, UniProt P21397).
T3 construct: purchased Sigma-Aldrich
T3 sequence (P21397 1-527): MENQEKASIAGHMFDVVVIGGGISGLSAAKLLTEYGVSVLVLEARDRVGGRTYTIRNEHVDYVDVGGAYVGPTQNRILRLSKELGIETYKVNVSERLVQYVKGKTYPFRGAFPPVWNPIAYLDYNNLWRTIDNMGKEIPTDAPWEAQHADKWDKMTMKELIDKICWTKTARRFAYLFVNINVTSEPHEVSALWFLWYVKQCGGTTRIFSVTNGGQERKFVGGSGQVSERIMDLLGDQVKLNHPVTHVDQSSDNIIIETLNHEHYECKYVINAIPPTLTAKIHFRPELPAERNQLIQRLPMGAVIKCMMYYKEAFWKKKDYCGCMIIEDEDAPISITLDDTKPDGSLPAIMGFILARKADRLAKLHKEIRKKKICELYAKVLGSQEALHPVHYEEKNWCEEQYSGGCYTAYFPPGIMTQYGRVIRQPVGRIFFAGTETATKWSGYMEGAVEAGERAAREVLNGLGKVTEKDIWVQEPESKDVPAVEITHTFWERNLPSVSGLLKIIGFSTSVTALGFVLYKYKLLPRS
The experiment in a line: Activity on recombinant human MAO-A, method similar to the VAP-1 assay. The note with it: substrate 0.5 mM tyramine; read-out: Inhibitory Activity (IC50, nM) MAO-A. Put shortly:
as §1

Another assay has as its target T4, recombinant human VAP-1 (Homo sapiens, UniProt Q16853).
T4 construct: purchased R&D systems
T4 sequence (Q16853 1-763): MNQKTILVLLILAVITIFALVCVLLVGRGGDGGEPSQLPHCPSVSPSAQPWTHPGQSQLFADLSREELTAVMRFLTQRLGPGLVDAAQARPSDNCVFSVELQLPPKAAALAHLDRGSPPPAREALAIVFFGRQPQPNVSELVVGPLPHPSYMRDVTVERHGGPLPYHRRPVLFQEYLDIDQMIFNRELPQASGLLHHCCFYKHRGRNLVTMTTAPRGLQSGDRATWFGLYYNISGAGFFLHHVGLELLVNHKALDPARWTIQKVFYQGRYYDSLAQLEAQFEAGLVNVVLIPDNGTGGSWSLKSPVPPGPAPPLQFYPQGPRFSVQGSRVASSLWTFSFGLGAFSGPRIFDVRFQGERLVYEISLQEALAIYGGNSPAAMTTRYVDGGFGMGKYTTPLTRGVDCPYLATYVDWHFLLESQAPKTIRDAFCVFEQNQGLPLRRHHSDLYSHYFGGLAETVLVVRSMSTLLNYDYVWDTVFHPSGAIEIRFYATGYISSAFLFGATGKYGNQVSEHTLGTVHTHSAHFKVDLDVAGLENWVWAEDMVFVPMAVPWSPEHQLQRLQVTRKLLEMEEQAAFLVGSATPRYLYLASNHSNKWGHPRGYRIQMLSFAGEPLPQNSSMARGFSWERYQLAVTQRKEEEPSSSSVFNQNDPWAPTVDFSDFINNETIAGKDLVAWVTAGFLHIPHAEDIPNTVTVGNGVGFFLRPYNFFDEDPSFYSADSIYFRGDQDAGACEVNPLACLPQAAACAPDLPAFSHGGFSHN
The experiment in a line: Activity on recombinant human VAP-1, HRP-coupled Amplex Red hydrogen peroxide assay. The settings on record: substrate 1 mM benzylamine; compound incubated with enzyme at 37° C. for 30 minutes; pH 7.4; read-out: Inhibitory Activity (IC50, nM) human VAP-1. Put shortly:
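Enzyme in 50 mM sodium phosphate pH 7.4 preincubated with compound 30 min at 37 °C, then 1 mM benzylamine, 200 µM Amplex Red and 1 U/mL HRP added. H2O2-derived resorufin fluorescence (ex 544/em 590 nm) followed over 1–2 h; signal-rate decrease versus DMSO control, 8-point curve, four-parameter logistic IC50.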

Where a name gives a salt, the structure may show the parent alone.

In general, IC50 refers to the midpoint of a concentration-inhibition curve. For the compound `CN1CC=C(c2ccc(Cn3cnn(C/C(=C/F)CN)c3=O)s2)CC1` [Example 58, 2-[(2E)-2-(aminomethyl)-3-fluoroprop-2-en-1-yl]-4-[5-(1-methyl-1,2,3,6-tetrahydropyridin-4-yl)thiophen-2-yl]methyl-2,4-dihydro-3H-1,2,4-triazol-3-one hydrochloride], the IC50 in assay [1] is 780 nM; in assay [2], over 10000 nM; in assay [3], over 100000 nM; at recombinant human VAP-1 it was 3.9 nM.

With `NC/C(=C\F)Cn1ncn(Cc2ccc(-c3cnc(N)nc3)s2)c1=O` [Example 167, 2-[(2E)-2-(aminomethyl)-3-fluoroprop-2-en-1-yl]-4-{[5-(2-aminopyrimidin-5-yl)thiophen-2-yl]methyl}-2,4-dihydro-3H-1,2,4-triazol-3-one], the IC50 in assay [1] was 1800 nM; in assay [2], over 10000 nM; in assay [3], over 100000 nM; at recombinant human VAP-1, 2.4 nM.

Take `NC/C(=C\F)Cn1ncn(Cc2ccc(-c3cc4c(c(C(F)(F)F)c3)NC(=O)CC4)s2)c1=O` [Example 81, 6-[5-[[1-[(E)-2-(aminomethyl)-3-fluoro-allyl]-5-oxo-1,2,4-triazol-4-yl]methyl]-2-thienyl]-8-(trifluoromethyl)-3,4-dihydro-1H-quinolin-2-one]: the IC50 in assay [1] was 68 nM; in assay [2], 430 nM; in assay [3], over 100000 nM; on recombinant human VAP-1, 0.18 nM.

Regarding `Cn1cnc2cc(/C=C/c3ccc(Cn4cnn(C/C(=C/F)CN)c4=O)s3)cnc21` [Example 123, 2-[(E)-2-(aminomethyl)-3-fluoro-allyl]-4-[[5-[(E)-2-(3-methylimidazo[4,5-b]pyridin-6-yl)vinyl]-2-thienyl]methyl]-1,2,4-triazol-3-one hydrochloride], the IC50 in assay [1] was 250 nM; in assay [2], over 10000 nM; in assay [3] it was over 100000 nM; at recombinant human VAP-1 it was 0.6 nM.

Take `CC(C)(C)NS(=O)(=O)c1cncc(-c2ccc(Cn3cnn(C/C(=C/F)CN)c3=O)s2)c1` [Example 43, 5-[5-(1-[(2E)-2-(aminomethyl)-3-fluoroprop-2-en-1-yl]-5-oxo-1,5-dihydro-4H-1,2,4-triazol-4-ylmethyl)thiophen-2-yl]-N-tert-butylpyridin-3-sulfonamide hydrochloride]: the IC50 in assay [1] is 110 nM; in assay [2], over 10000 nM; in assay [3] it was over 100000 nM; at recombinant human VAP-1, 4.1 nM.

With `COc1ccc(-c2ccc(Cn3cnn(C/C(=C/F)CN)c3=O)s2)cn1` [Example 45, 2-[(2E)-2-(aminomethyl)-3-fluoroprop-2-en-1-yl]-4-[5-(6-methoxypyridin-3-yl)thiophen-2-yl]methyl-2,4-dihydro-3H-1,2,4-triazol-3-one hydrochloride], the IC50 was 330 nM in assay [1], 400 nM in assay [2], over 100000 nM in assay [3] and 1.1 nM on recombinant human VAP-1.

Consider `NC/C(=C\F)Cn1ncn(Cc2ccc(-c3ccc(OC(F)F)cc3)s2)c1=O` [Example 170, 2-[(2E)-2-(aminomethyl)-3-fluoroprop-2-en-1-yl]-4-({5-[4-(difluoromethoxy)phenyl]thiophen-2-yl}methyl)-2,4-dihydro-3H-1,2,4-triazol-3-one], for which the concentration for half-maximal inhibition (IC50) in assay [1] is 3100 nM; in assay [2], 190 nM; in assay [3], over 100000 nM; on recombinant human VAP-1, 3 nM.

Regarding `CN1C(=O)Cc2cc(-c3ccc(Cn4cnn(C/C(=C/F)CN)c4=O)s3)cnc21` [Example 73, 5-[5-(1-[(2E)-2-(aminomethyl)-3-fluoroprop-2-en-1-yl]-5-oxo-1,5-dihydro-4H-1,2,4-triazol-4-ylmethyl)thiophen-2-yl]-1-methyl-1,3-dihydro-2H-pyrrolo[2,3-b]pyridin-2-one hydrochloride], the IC50 is 93 nM in assay [1], 6100 nM in assay [2], over 100000 nM in assay [3] and 0.2 nM at recombinant human VAP-1.

Regarding `NC/C(=C\F)Cn1ncn(Cc2ccc(-c3ccc(CO)cc3)s2)c1=O` [Example 169, 2-[(2E)-2-(aminomethyl)-3-fluoroprop-2-en-1-yl]-4-({5-[4-(hydroxymethyl)phenyl]thiophen-2-yl}methyl)-2,4-dihydro-3H-1,2,4-triazol-3-one], the IC50 in assay [1] is 12000 nM; in assay [2], 930 nM; in assay [3], over 100000 nM; at recombinant human VAP-1 it was 3.3 nM.

Take `NC/C(=C\F)Cn1ncn(Cc2ccc(-c3cc(F)c4c(c3)CC(=O)N4)s2)c1=O` [Example 71, 5-[5-[[1-[(E)-2-(aminomethyl)-3-fluoro-allyl]-5-oxo-1,2,4-triazol-4-yl]methyl]-2-thienyl]-7-fluoro-indolin-2-one hydrochloride]: the IC50 in assay [1] was 530 nM; in assay [2] it was over 10000 nM; in assay [3], over 100000 nM; at recombinant human VAP-1, 0.2 nM.
